# Several values for one entry are separate records, joined by “and”; a condition that tells them apart may be missing. Equal entries are not always repeated. Where two headings read alike, the source gives them in different places.
# Experiments:
# AChE of S. zeamais = experiment: AChE activity assay (modified Ellman) with S. zeamais protein extract; type: biochemical, Sitophilus zeamais; design: key to AChE Effect Inhibitor Type: C: competitive inhibitor; NC: non-competitive inhibitor; conditions: for AChE Effect Inhibitor Type: Lineweaver–Burk; for AChE Effect IC50 ± SD / Ki: S. zeamais protein extract; for Ki: read-out: AChE Effect ki ± SD (inhibitory constant)
# Procedure: The compounds and mixtures evaluated in the in vitro assays were prepared in the same buffer supplemented with 0.5% (v/v) Triton X-100 (Sigma-Aldrich®, Saint Louis, MO, USA).
# The supernatant was filtered, and 20 mM benzamidine was added. The extracts were stored in 5 mL aliquots at −20 °C. Preliminary assays were performed to quantify the specific activity of AChE (0.02–1.00 U/mL), GST (0.1–0.8 U/mL), and CAT (0.1–25 U/mL), and to optimize assay conditions (enzyme dilution: 1/8 to 1% v/v; substrate concentrations: 2 × km or within assay linearity).
# Then, 50 µL of DTNB and 50 µL of ATChI were added. […] Inhibition percentages were calculated using Equation (5).
# Sitophilus zeamais [1] = experiment: whole plant or invertebrate; conditions: for LC50 / EC90: Sitophilus zeamais; for EC90: read-out: Fumigant Toxicity LC90 (95% FL)
# Procedure: (§1) The insects used in this study were Sitophilus zeamais Motschulsky (Coleoptera: Curculionidae), identified by the Instituto Colombiano Agropecuario (ICA) under report number R3823M0000425. […] The adult insects used in all the experiments were 6 to 10 days post-emergence.
# The treated disks were affixed to the inner surface of the screw cap of 22 mL glass vials. […] All treatments were performed in two independent experiments, each with five replicates.
# (§2) Mixtures predicted by the RSM were prepared based on mole fractions. […] Four replicates were performed for each treatment and control across two independent experimental runs.
# Dose reduction indices (DRIs) were also calculated to estimate how much the dose of each compound in a synergistic combination could be reduced to achieve a 50% effect (Equation (4)). DRIs were interpreted as favorable when >1, neutral at 1, and unfavorable when <1. Values above the log DRI = 0 line indicate favorable dose reductions.(4) (IRD)i=CL50i(fax)i/(1−(fax)i)^1/mi/(D)i
# [2] = test system: glutathione S-transferase (GST) activity in S. zeamais; experiment: GST activity assay (modified Habig) with S. zeamais protein extract; type: biochemical, Sitophilus zeamais; conditions: 120 mg/L
# Procedure: Enzymatic assays were performed in the assay buffer, consisting of 0.1 M potassium phosphate buffer (pH 7.2). The compounds and mixtures evaluated in the in vitro assays were prepared in the same buffer supplemented with 0.5% (v/v) Triton X-100 (Sigma-Aldrich®, Saint Louis, MO, USA).
# A modified version of the method described by Oviedo et al. was used. Adults of S. zeamais (8 g; ~3125 insects) were frozen in liquid nitrogen, homogenized in a 1:10 ratio with assay buffer, and centrifuged at 13,000× g for 60 min at 4 °C. The supernatant was filtered, and 20 mM benzamidine was added. The extracts were stored in 5 mL aliquots at −20 °C. Preliminary assays were performed to quantify the specific activity of AChE (0.02–1.00 U/mL), GST (0.1–0.8 U/mL), and CAT (0.1–25 U/mL), and to optimize assay conditions (enzyme dilution: 1/8 to 1% v/v; substrate concentrations: 2 × km or within assay linearity). Each experiment was performed independently three times, with three technical replicates per experiment.
# A modified version of Habig’s method was used. The protein extract (50 µL; 0.59 U/mL) was incubated with 50 µL of the compound or mixture (120 mg/L), followed by 50 µL each of CDNB and reduced glutathione (GSH). Kinetic absorbance was measured at 340 nm for 8 min. Blanks (without substrate) and quercetin (positive control) were included. Inhibition (%) was calculated using Equation (5), and treatment differences were evaluated via parametric ANOVA (α = 0.05) in GraphPad Prism 8.0.2 [42, 43]. Each experiment was performed independently three times, with three technical replicates per experiment.(5) % Inhibition=1−Am−AB/AC ×100 where Am is the absorbance of the sample, AB is the absorbance of the blank, and AC is the absorbance of the negative control.
# Sitophilus zeamais [3] = type: in vivo; conditions: for Contact Toxicity LD50i (LC-95%): mixtures and their components (Table 3)
# Procedure: as §1
# Groups of 10 insects, previously placed in Petri dishes, were immobilized by exposure to low temperatures (0 °C). An initial dose of 50.0 µg per adult was applied topically to the dorsal thorax of each insect using aliquots of 0.20 µL from 0.25 mg/µL solutions in n-hexane. […] All treatments were performed in two independent experiments, each with four replicates. Insect mortality was assessed after 24 h, and mortality percentages were calculated using Abbott’s correction formula (Equation (1)).
# as §2
# Dose reduction indices (DRIs) were also calculated to estimate how much the dose of each compound in a synergistic combination could be reduced to achieve a 50% effect (Equation (4)). DRIs were interpreted as favorable when >1, neutral at 1, and unfavorable when <1.
# [4] = 24 h, read-out: Fumigant Toxicity LC50i (LC-95%)
# [5] = in Homo sapiens, 24 h, read-out: Fumigant Toxicity LC50 (95% FL)
# [6] = read-out: LC50 values, fumigant activity (Figure 3)
Compound,LC50 (Sitophilus zeamais [1]; [4]) [µg/mL],LC50 (Sitophilus zeamais [1]; [5]),"EC90 (Sitophilus zeamais [1]; in Homo sapiens, 24 h)",GST Inhibition λ340 (%) [2],"Contact Toxicity LD50 (95% FL) (Sitophilus zeamais [3]; topical, 24 h after exposure)","Contact Toxicity LD90 (95% FL) (Sitophilus zeamais [3]; topical, 24 h after exposure)",also measured
"C=C(C)C1CC=C(C)CC1 (racemic) [Compound C16, DL-Limonene (1:1)]",88.7,88.7 µg/mL and 651 µM,136 µg/mL and 999 µM,7.4%,–,–,"AChE inhibition type (Lineweaver–Burk plots), in words (AChE of S. zeamais): non-competitive inhibition; AChE Effect Inhibitor Type (AChE of S. zeamais): NC; AChE Effect IC50 ± SD (AChE of S. zeamais): 26.69 ± 2.90 µg/mL; Ki (AChE of S. zeamais): 79.64 ± 0.55 µM"
"C=C(C)[C@H]1CC=C(C)C(=O)C1 [Compound C3, S-(+)-Carvone]",2.87,2.87 µg/mL and 19.1 µM,5.31 µg/mL and 35.4 µM,23.0%,12.68 (10.91–14.60) µg/Adult,23.236 (20.46–27.42) µg/Adult,"AChE inhibition type (Lineweaver–Burk plots), in words (AChE of S. zeamais): competitive inhibition; AChE Effect Inhibitor Type (AChE of S. zeamais): C; AChE Effect IC50 ± SD (AChE of S. zeamais): 66.27 ± 4.35 µg/mL; Ki (AChE of S. zeamais): 56.76 ± 0.18 µM; Contact Toxicity LD50i (LC-95%) (Sitophilus zeamais [3]): 12.68 µg/Adult; LC50 (Sitophilus zeamais [1]; [6]): 2.87 µg/mL"
"CC1C(=O)CC2(C(C)C)CC12 (stereo not drawn) [Compound C6, α, β-Thujone (70:10)]",–,4.34 µg/mL and 28.5 µM,6.81 µg/mL and 44.7 µM,–,32.04 (29.44–34.42) µg/Adult,44.67 (41.56–49.34) µg/Adult,–
"C=C(C)[C@@H]1CC[C@@H](C)C[C@H]1O [Compound C7, 1R,2S,5R-Isopulegol]",4.73,4.73 µg/mL and 30.7 µM,7.19 µg/mL and 46.6 µM,10.6%,–,26.65 (25.07–28.90) µg/Adult,"AChE inhibition type (Lineweaver–Burk plots), in words (AChE of S. zeamais): competitive inhibition; AChE Effect Inhibitor Type (AChE of S. zeamais): C; AChE Effect IC50 ± SD (AChE of S. zeamais): 18.15 ± 0.64 µg/mL; Ki (AChE of S. zeamais): 282 ± 4.14 µM"
"CC1(C)C(=O)[C@]2(C)CC[C@H]1C2 [Compound C8, 1R-(−)-Fenchone]",–,10.6 µg/mL and 69.6 µM,17.1 µg/mL and 112 µM,–,34.65 (32.19–37.08) µg/Adult,48.33 (45.12–52.78) µg/Adult,–
"CCCCCCCC(C)=O [Compound C9, 2-Nonanone]",–,9.09 µg/mL and 63.9 µM,13.7 µg/mL and 96.5 µM,–,31.86 (30.27–33.17) µg/Adult,39.69 (38.01–42.15) µg/Adult,–
"C=CCc1ccc(OC)cc1 [Compound C11, Estragole]",30.5,30.5 µg/mL and 206 µM,57.5 µg/mL and 388 µM,~ 17.5% and 17.6%,–,–,"AChE inhibition type (Lineweaver–Burk plots), in words (AChE of S. zeamais): competitive inhibition; AChE Effect Inhibitor Type (AChE of S. zeamais): C; AChE Effect IC50 ± SD (AChE of S. zeamais): 27.41 ± 1.64 µg/mL; Ki (AChE of S. zeamais): 159 ± 6.34 µM; Contact Toxicity LD90 (95% FL) (Sitophilus zeamais [3]; in vivo): 79.66 (68.62–99.73) µg/Adult"
"CC1=CC[C@H]2[C@@H](C1)C2(C)C [Compound C15, δ-3-Carene]",80.3,80.3 µg/mL and 590 µM,136 µg/mL and 997 µM,7.3%,–,–,"AChE inhibition type (Lineweaver–Burk plots), in words (AChE of S. zeamais): non-competitive inhibition; AChE Effect Inhibitor Type (AChE of S. zeamais): NC; Ki (AChE of S. zeamais): 2.85 ± 0.05 µM"
"C=C1CCC2CC1C2(C)C (stereo not drawn) [Compound C17, β-Pinene]",–,–,151 µg/mL,–,–,–,–
"C=C1CCC2(C(C)C)CC12 (stereo not shown) [Compound C18, Sabinene]",68.7,68.7 µg/mL and 504 µM,102 µg/mL and 750 µM,25.9%,–,–,LC50 (Sitophilus zeamais [1]; [6]): 68.6 µg/mL
"CC1=CCC(C(C)C)=CC1 [Compound C21, γ-Terpinene]",108,108 µg/mL and 792 µM,188 µg/mL and 1.38 mM,25.9%,–,–,–
"CC1=CC(=O)C(C(C)C)CC1 (stereo not shown) [Compound C22, Piperitone]",–,4.38 µg/mL and 28.8 µM,6.19 µg/mL and 40.7 µM,–,–,14.70 (13.25–16.96) µg/Adult,–
"C=C(C)[C@@H]1CC[C@@H](C)CC1=O [Compound C23, 2S,5R-Isopulegone]",2.37,2.37 µg/mL and 15.6 µM,3.88 µg/mL and 25.5 µM,19.4%,–,18.48 (16.56–21.64) µg/Adult,Contact Toxicity LD50i (LC-95%) (Sitophilus zeamais [3]): 11.14 µg/Adult
"CC1=CCC(=C(C)C)CC1 [Compound C24, Terpinolene]",–,52.1 µg/mL and 338 µM,88.8 µg/mL and 576 µM,–,–,–,–
"CC(C)=CCC/C(C)=C/C=O [Compound C27, Citral]",–,–,–,–,–,32.68 (29.77–36.82) µg/Adult,–
"C=CC(C)(O)CCC=C(C)C (stereo not shown) [Compound C28, Linalool]",–,–,–,–,21.87 (19.09–24.23) µg/Adult,36.23 (33.20–40.64) µg/Adult,–
"CC(C)=CCC/C(C)=C/CO [Compound C30, Geraniol]",–,–,–,–,28.13 (25.70–30.49) µg/Adult,41.06 (37.98–45.41) µg/Adult,–
"C=CCc1ccc2c(c1)OCO2 [Compound C32, Safrole]",–,–,–,–,36.31 (30.15–42.37) µg/Adult,83.04 (73.50–96.63) µg/Adult,"Contact toxicity, times less active than biosynthetic precursors C26 and C31 (Sitophilus zeamais [3]; in vivo): 1.5 times"
"CCCCCCCC(=O)CCC [Compound C34, 4-Undecanone]",–,–,–,–,37.05 (34.09–40.01) µg/Adult,53.95 (49.63–60.68) µg/Adult,–
"CCCCCCCCC(C)=O [Compound C35, 2-Decanone]",–,–,–,–,38.04 (35.29–40.84) µg/Adult,57.17 (52.97–63.12) µg/Adult,LC50 (Sitophilus zeamais [1]; [6]): > 150 µg/mL
"CCCCCCCCCC(C)=O [Compound C36, 2-Undecanone]",–,–,–,–,42.86 (40.60–45.30) µg/Adult,57.13 (53.43–62.83) µg/Adult,–
"CC(=O)OC/C=C(\C)CCC=C(C)C [Compound C37, Geranyl acetate]",–,–,–,–,73.00 (65.98–81.05) µg/Adult,126.06 (112.84–146.08) µg/Adult,–
"CC1(C)C(C=C(Cl)Cl)C1C(=O)OC(C#N)c1cccc(Oc2ccccc2)c1 (stereo not shown) [Cypermethrin, reference compound]",–,–,–,–,10.492 (0.00–29.96) µg/Adult,35.79 (21.98–84.37) µg/Adult,Contact Toxicity LD50i (LC-95%) (Sitophilus zeamais [3]): 10.49 (0.10–19.96) µg/Adult; Contact Toxicity LD50i (LC-95%) (Sitophilus zeamais [3]; listed as cypermethrin): 10.49 µg/Adult
"COP(=O)(OC)OC=C(Cl)Cl [Dichlorvos, reference compound]",2.17,2.17 µg/mL and 9.84 µM,4.57 µg/mL and 20.7 µM,–,–,–,AChE Effect IC50 ± SD (AChE of S. zeamais): 0.0096 ± 0.00208 µg/mL; Fumigant Toxicity LC50i (LC-95%) (Sitophilus zeamais [1]; mixtures and their components (Table 3)): 2.17 (1.53–3.81) mg/L
Isoeugenol [Compound C31],–,–,–,–,29.1 (24.40–34.21) µg/Adult,66.2 (57.28–80.01) µg/Adult,–

# Reference: publication PMC12194779, “Synergistic Insecticidal Activity of Plant Volatile Compounds: Impact on Neurotransmission and Detoxification Enzymes in Sitophilus zeamais” (Insects, 2025)
